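The compound was tested at five concentrations on cells cultured in 96-well plates, with a 48-hour exposure period. TGI is the concentration that stops growth completely.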
How the values were obtained:
Experiment in all cases: growth of human tumour cells (NCI), 48 h
A498 renal = tested on: A498 renal
M14 melanoma = tested on: M14 melanoma
UACC-257 melanoma = tested on: UACC-257 melanoma
EKVX NSCLC = tested on: EKVX NSCLC
HOP-62 NSCLC = tested on: HOP-62 NSCLC
HCC-2998 colon = tested on: HCC-2998 colon
SK-OV-3 ovarian = tested on: SK-OV-3 ovarian
A549 NSCLC = tested on: A549 NSCLC
DLD-1 colon = tested on: DLD-1 colon
U251 CNS = tested on: U251 CNS
OVCAR-5 ovarian = tested on: OVCAR-5 ovarian
OVCAR-8 ovarian = tested on: OVCAR-8 ovarian
HT29 colon = tested on: HT29 colon
SNB-19 CNS = tested on: SNB-19 CNS
NCI-H460 lung = tested on: NCI-H460 lung
MALME-3M melanoma = tested on: MALME-3M melanoma
SF-295 CNS = tested on: SF-295 CNS
UO-31 renal = tested on: UO-31 renal
SN12C renal = tested on: SN12C renal
TK-10 renal = tested on: TK-10 renal
M19-MEL melanoma = tested on: M19-MEL melanoma
SW-620 colon = tested on: SW-620 colon
SK-MEL-5 melanoma = tested on: SK-MEL-5 melanoma
ACHN renal = tested on: ACHN renal
HCT-116 colon = tested on: HCT-116 colon
COLO 205 colon = tested on: COLO 205 colon
CAKI-1 renal = tested on: CAKI-1 renal
SNB-78 CNS = tested on: SNB-78 CNS
HCT-15 colon = tested on: HCT-15 colon
NCI-H23 lung = tested on: NCI-H23 lung
XF 498 CNS = tested on: XF 498 CNS
HOP-92 NSCLC = tested on: HOP-92 NSCLC
DMS 114 small cell lung = tested on: DMS 114 small cell lung
SF-539 CNS = tested on: SF-539 CNS
KM20L2 colon = tested on: KM20L2 colon
SF-268 CNS = tested on: SF-268 CNS
786-0 renal = tested on: 786-0 renal
SNB-75 CNS = tested on: SNB-75 CNS
LXFL 529 NSCLC = tested on: LXFL 529 NSCLC
LOX IMVI melanoma = tested on: LOX IMVI melanoma
NCI-H522 lung = tested on: NCI-H522 lung
SK-MEL-2 melanoma = tested on: SK-MEL-2 melanoma
SK-MEL-28 melanoma = tested on: SK-MEL-28 melanoma
HOP-18 NSCLC = tested on: HOP-18 NSCLC
K-562 leukemia = tested on: K-562 leukemia
SR leukemia = tested on: SR leukemia
NCI-H226 lung = tested on: NCI-H226 lung
MOLT-4 leukemia = tested on: MOLT-4 leukemia
UACC-62 melanoma = tested on: UACC-62 melanoma
IGROV1 ovarian = tested on: IGROV1 ovarian
KM12 colon = tested on: KM12 colon
RPMI-8226 leukemia = tested on: RPMI-8226 leukemia
OVCAR-4 ovarian = tested on: OVCAR-4 ovarian
OVCAR-3 ovarian = tested on: OVCAR-3 ovarian
DMS 273 small cell lung = tested on: DMS 273 small cell lung
RXF 393 renal = tested on: RXF 393 renal
RXF-631 renal = tested on: RXF-631 renal
HL-60(TB) leukemia = tested on: HL-60(TB) leukemia
CCRF-CEM leukemia = tested on: CCRF-CEM leukemia

Q: With `Cc1ccc(C2(O)CC(c3ccc([N+](=O)[O-])o3)=NN2C(=O)COc2ccc(Cl)cc2)cc1` (centres undefined) as the molecule, how does the TGI (A498 renal) read?
A: Its TGI is 22.2 µM.

Q: And the TGI (M14 melanoma)?
A: Its TGI is 17.1 µM.

Q: What about the TGI (UACC-257 melanoma) of the same molecule?
A: Its TGI is 17 µM.

Q: And the TGI (EKVX NSCLC)?
A: The TGI was 18.8 µM.

Q: And the TGI (HOP-62 NSCLC)?
A: Its TGI is 18.2 µM.

Q: What about the TGI (HCC-2998 colon) of the same molecule?
A: Its TGI is 16.8 µM.

Q: And the TGI (SK-OV-3 ovarian)?
A: The TGI was over 100 µM.

Q: What about the TGI (A549 NSCLC) of the same molecule?
A: The TGI was 56.4 µM.

Q: And the TGI (DLD-1 colon)?
A: Its TGI is over 100 µM.

Q: And the TGI (U251 CNS)?
A: Its TGI is 9.09 µM.

Q: What about the TGI (OVCAR-5 ovarian) of the same molecule?
A: Its TGI is over 94.9 µM.

Q: What about the TGI (OVCAR-8 ovarian) of the same molecule?
A: Its TGI is 20.3 µM.

Q: And the TGI (HT29 colon)?
A: The TGI was over 38.8 µM.

Q: And the TGI (SNB-19 CNS)?
A: The TGI was 67.3 µM.

Q: What about the TGI (NCI-H460 lung) of the same molecule?
A: Its TGI is 20.7 µM.

Q: And the TGI (MALME-3M melanoma)?
A: The TGI was 27.1 µM.

Q: What about the TGI (SF-295 CNS) of the same molecule?
A: The TGI was 27.6 µM.

Q: What about the TGI (UO-31 renal) of the same molecule?
A: The TGI was 16.2 µM.

Q: And the TGI (SN12C renal)?
A: The TGI was 17.9 µM.

Q: And the TGI (TK-10 renal)?
A: The TGI was 38.4 µM.

Q: What about the TGI (M19-MEL melanoma) of the same molecule?
A: Its TGI is 19.7 µM.

Q: What about the TGI (SW-620 colon) of the same molecule?
A: Its TGI is 10.6 µM.

Q: What about the TGI (SK-MEL-5 melanoma) of the same molecule?
A: The TGI was 6.6 µM.

Q: What about the TGI (ACHN renal) of the same molecule?
A: The TGI was 43.1 µM.

Q: What about the TGI (HCT-116 colon) of the same molecule?
A: The TGI was 22.2 µM.

Q: What about the TGI (COLO 205 colon) of the same molecule?
A: The TGI was 15.3 µM.

Q: What about the TGI (CAKI-1 renal) of the same molecule?
A: Its TGI is 67.5 µM.

Q: What about the TGI (SNB-78 CNS) of the same molecule?
A: Its TGI is 58.9 µM.

Q: What about the TGI (HCT-15 colon) of the same molecule?
A: Its TGI is 17.7 µM.

Q: And the TGI (NCI-H23 lung)?
A: Its TGI is 11.9 µM.

Q: And the TGI (XF 498 CNS)?
A: The TGI was 26.9 µM.

Q: And the TGI (HOP-92 NSCLC)?
A: Its TGI is 24.3 µM.

Q: And the TGI (DMS 114 small cell lung)?
A: The TGI was 83.8 µM.

Q: What about the TGI (SF-539 CNS) of the same molecule?
A: Its TGI is 15.4 µM.

Q: And the TGI (KM20L2 colon)?
A: Its TGI is 44.1 µM.

Q: And the TGI (SF-268 CNS)?
A: The TGI was 28.1 µM.

Q: What about the TGI (786-0 renal) of the same molecule?
A: The TGI was 18 µM.

Q: What about the TGI (SNB-75 CNS) of the same molecule?
A: The TGI was over 48.3 µM.

Q: What about the TGI (LXFL 529 NSCLC) of the same molecule?
A: Its TGI is 10.9 µM.

Q: And the TGI (LOX IMVI melanoma)?
A: Its TGI is 19 µM.

Q: What about the TGI (NCI-H522 lung) of the same molecule?
A: Its TGI is 34.2 µM.

Q: What about the TGI (SK-MEL-2 melanoma) of the same molecule?
A: Its TGI is 16.1 µM.

Q: What about the TGI (SK-MEL-28 melanoma) of the same molecule?
A: Its TGI is 22.4 µM.

Q: What about the TGI (HOP-18 NSCLC) of the same molecule?
A: Its TGI is over 100 µM.

Q: What about the TGI (K-562 leukemia) of the same molecule?
A: Its TGI is over 100 µM.

Q: What about the TGI (SR leukemia) of the same molecule?
A: Its TGI is 6.52 µM.

Q: And the TGI (NCI-H226 lung)?
A: Its TGI is 39.7 µM.

Q: And the TGI (MOLT-4 leukemia)?
A: Its TGI is over 100 µM.

Q: What about the TGI (UACC-62 melanoma) of the same molecule?
A: Its TGI is 15.1 µM.

Q: What about the TGI (IGROV1 ovarian) of the same molecule?
A: Its TGI is over 76.4 µM.

Q: What about the TGI (KM12 colon) of the same molecule?
A: Its TGI is 31.4 µM.

Q: And the TGI (RPMI-8226 leukemia)?
A: Its TGI is over 21.2 µM.

Q: And the TGI (OVCAR-4 ovarian)?
A: Its TGI is 77.9 µM.

Q: And the TGI (OVCAR-3 ovarian)?
A: The TGI was 51.7 µM.

Q: And the TGI (DMS 273 small cell lung)?
A: Its TGI is over 62.1 µM.

Q: What does the source list for `CC(C)CCCC(C)[C@H]1CCC2[C@H]3C(CC[C@@]21C)[C@@]1(C)CCC=C[C@]12C[C@@H]2[C@@H]3O` (some centres undefined)?
A: TGI (A498 renal): > 100 µM; TGI (M14 melanoma): > 100 µM; TGI (UACC-257 melanoma): > 100 µM; TGI (EKVX NSCLC): > 100 µM; TGI (HOP-62 NSCLC): > 100 µM; TGI (HCC-2998 colon): > 100 µM; TGI (SK-OV-3 ovarian): > 100 µM; TGI (A549 NSCLC): > 100 µM; TGI (DLD-1 colon): > 100 µM; TGI (U251 CNS): > 100 µM; TGI (OVCAR-5 ovarian): > 100 µM; TGI (OVCAR-8 ovarian): > 100 µM; TGI (HT29 colon): > 100 µM; TGI (SNB-19 CNS): > 100 µM; TGI (NCI-H460 lung): > 100 µM; TGI (MALME-3M melanoma): > 100 µM; TGI (SF-295 CNS): > 100 µM; TGI (UO-31 renal): > 100 µM; TGI (SN12C renal): > 100 µM; TGI (TK-10 renal): > 100 µM; TGI (RXF 393 renal): > 100 µM; TGI (SW-620 colon): > 100 µM; TGI (SK-MEL-5 melanoma): > 100 µM; TGI (ACHN renal): > 100 µM; TGI (HCT-116 colon): > 100 µM; TGI (COLO 205 colon): > 100 µM; TGI (CAKI-1 renal): > 100 µM; TGI (SNB-78 CNS): > 100 µM; TGI (HCT-15 colon): > 100 µM; TGI (HOP-92 NSCLC): > 100 µM; TGI (DMS 114 small cell lung): > 100 µM; TGI (SF-539 CNS): > 100 µM; TGI (KM20L2 colon): > 100 µM; TGI (SF-268 CNS): > 100 µM; TGI (786-0 renal): > 100 µM; TGI (SNB-75 CNS): > 100 µM; TGI (LXFL 529 NSCLC): > 100 µM; TGI (LOX IMVI melanoma): > 100 µM; TGI (NCI-H522 lung): > 100 µM; TGI (SK-MEL-28 melanoma): > 100 µM; TGI (HOP-18 NSCLC): > 100 µM; TGI (SR leukemia): > 100 µM; TGI (NCI-H226 lung): > 100 µM; TGI (MOLT-4 leukemia): > 100 µM; TGI (UACC-62 melanoma): > 100 µM; TGI (IGROV1 ovarian): > 100 µM; TGI (RXF-631 renal): > 100 µM; TGI (KM12 colon): > 100 µM; TGI (RPMI-8226 leukemia): > 100 µM; TGI (OVCAR-4 ovarian): > 100 µM; TGI (HL-60(TB) leukemia): > 100 µM; TGI (OVCAR-3 ovarian): > 100 µM; TGI (DMS 273 small cell lung): > 100 µM; TGI (CCRF-CEM leukemia): > 100 µM
